Results from patent US12122756B2, “Biflavone compound against I-type herpes simplex virus, and preparation method therefor and use thereof” (priority 2022, dated 2024).
Marks after values point to notes of the source that are not given here.

Key:
Vero cells = test: Cytotoxic assay of tested drugs against Vero cells (CCK-8); assay type: cell-based, African green monkey
Experimental: 3. Cytotoxic assay of tested drugs against Vero cells: Vero cells were seed in a 96 well plate at 3×10^4 cells/well. The next day, after growing into a monolayer, the test drug was diluted to obtain 8-9 concentrations and added to each well. Meanwhile, a normal control group was established, with 4 replicate wells for each group. After 72 hours, the toxicity of the test drug to Vero cells was measured using CCK-8 assay, and the highest non-toxic concentration and half toxic concentration (TC50) of the drug on the cells were calculated.

HSV-I [1] = test: Plaque-reduction method: plaque formation in Vero cells induced by HSV-I; assay type: cell-based, Herpes simplex virus type I
Experimental: (2) Measurement of the inhibitory effect of drugs on the formation of plaque in Vero cells induced by HSV-I using plaque-reduction method: Vero cells were seeded into a 24-well plate and grew into a monolayer the next day. Then, the 100 PFU/0.2 ml virus solution was added to infect the cells, and a cell control group was included. After incubation with the virus, the agarose cover solution for maintenance of cells, containing different concentrations of the test drug, was replaced, followed by cultivation for additional 72 hours. The cell culture was fixed with 4% paraformaldehyde, stained with 1% crystal violet solution, washed, and dried. The plaque was counted to calculate plaque-forming inhibition ratio of the drug. [formula] 5. Study on the Action Mode of the Test Drug

HSV-I [2] = test: Action mode: inhibitory effect on HSV-I replication (CPE, CCK-8); assay type: cell-based, Herpes simplex virus type I
Experimental: (2) The inhibitory effect of drugs on HSV-I replication: Vero cells were seeded in a 96-well plate and grew into a monolayer, before adding HSV-I virus solution at 100 μl/well, followed by incubation for 1 hour. Then, the cell maintenance solution containing different concentrations of sample was replaced, and the cells were further cultured. After 72 hours, the effect on the replication of virus was determined using the CCK-8 method.

HSV-I [3] = test: Action mode: inhibitory effect on HSV-I adsorption (CPE, CCK-8); assay type: cell-based, Herpes simplex virus type I
Experimental: (1) The inhibitory effect of drugs on HSV-I adsorption: Vero cells were seeded in a 96-well plate and grew into a monolayer, before pretreatment with different concentrations of samples. Then, HSV-I virus solution was added at 100 μl/well, followed by incubation for 1 hour. Finally, the cell maintenance solution was replaced, and the cells were further cultured. After 72 hours, the effect on the adsorption of virus was determined using the CCK-8 method.

HSV-I [4] = test: Action mode: direct inactivation effect on HSV-I (CPE, CCK-8); assay type: cell-based, Herpes simplex virus type I
Experimental: (3) The direct inactivation effect of drugs on HSV-I: Vero cells were seeded in a 96-well plate and grew into a monolayer. Different concentrations of samples were respectively mixed with the virus solution, followed by placing at 37° C. for 1 hour. Then, the solution was added the cells, and incubated for 1 hour. Then, the cell maintenance solution was replaced, and the cells were further cultured. After 72 hours, the direct inactivation effects of drugs on HSV-I was determined using the CCK-8 method. Moreover, a virus control group was set up.

HSV-I viral keratitis = HSV-I viral keratitis model in mice, eye drops; assay type: in vivo
Description: 8-week-old C57 mice (25 mice, weighing 22 g-25 g) were used to establish HSV-I viral keratitis models in their right eyes. During the modeling process, ster[…] needles were used to make #-shaped/*-shaped/parallel scratches on the cornea of all animals' right eyes. The depth of the scratches must be in the superficial layer, and could not penetrate the stroma. The depth of the scratches for each eye was moderately uniform, and the scratches were evenly distributed, and then a fiber syringe was used to drop 4 μl of HSV-I virus solution mixed well (titer: 2.0×10^6 PFU/ml), to finish modeling. After 1 day of modeling, the right eye of the animal was scored for HSV-I viral keratitis, and 20 mice with successful and uniform modeling were selected for inclusion in the experiment, which were randomly divided into two groups: a modeling group (Ctrl) and a di-XYW compound group, with 10 mice in one group. The surface of the right eye of the animal was treated with a corresponding solvent (Ctrl group, with physiological saline as the solvent) or a di-XYW compound at a concentration of 500 μg/ml (using physiological saline as the solvent), by administering every other day. On the day of administration, each eye should be administrated 5 times, 10 μl for each time, for 2 weeks. The pathological change of keratitis was scored before eye drops (Day 0) and on days 1, 3, 7, and 14 after eye drops (that was summarized as clinical scores, with scoring criteria shown in Table 7), followed by analysis and comparison. [table]

[5] = Solubility (highest solubility used as starting concentration; water solubility)

COc1c(O)c(Cc2c(O)c(OC)c(O)c3c(=O)c(-c4ccc(O)c(S(=O)(=O)[O-])c4)coc23)c2occ(-c3ccc(O)c(S(=O)(=O)[O-])c3)c(=O)c2c1O.[Na+].[Na+] [Compound 2, 8,8″-methylene-di-(sodiumtectorigenin-5′-sulphonate)]
growth inhibition rate (%) on Vero cells (Vero cells; 1st (highest) concentration (971, 1600, 2620, 390 μg·ml^−1 for Compounds 1-4), 72 h): 41.92** % | growth inhibition rate (%) on Vero cells (Vero cells; 2nd concentration, 50% serial dilution from column-head concentration, 72 h): 29.02** % | growth inhibition rate (%) on Vero cells (Vero cells; 3rd concentration, 50% serial dilution from column-head concentration, 72 h): 11.69** % | growth inhibition rate (%) on Vero cells (Vero cells; 4th concentration, 50% serial dilution from column-head concentration, 72 h): −4.55% | growth inhibition rate (%) on Vero cells (Vero cells; 5th concentration, 50% serial dilution from column-head concentration, 72 h): 5.46% | growth inhibition rate (%) on Vero cells (Vero cells; 6th concentration, 50% serial dilution from column-head concentration, 72 h): −4.74% | growth inhibition rate (%) on Vero cells (Vero cells; 7th concentration, 50% serial dilution from column-head concentration, 72 h): −12.11% | growth inhibition rate (%) on Vero cells (Vero cells; 8th concentration, 50% serial dilution from column-head concentration, 72 h): −8.20% | growth inhibition rate (%) on Vero cells (Vero cells; 9th concentration, 50% serial dilution from column-head concentration, 72 h): −13.88% | TC50 on Vero cells (Vero cells; 72 h, CCK-8, Probit regression): 1749.982 µg/mL | toxicity (in words) (Vero cells; Vero cells): lower toxicity | TC50 (Vero cells; Vero cells (Table 5)): 1749.982 µg/mL | highest non-toxic concentration (Vero cells; Vero cells, 72 h, CCK-8): 382.804 µg/mL | inhibitory effect on plaque formation induced by HSV-I (in words) (HSV-I [1]): significant inhibitory effect | Effect on viral replication: OD value (HSV-I [2]; 5.97 μg/ml, n = 6): 0.33 ± 0.05 | Effect on viral replication: OD value (HSV-I [2]; 11.94 μg/ml, n = 6): 0.36 ± 0.07 | Effect on viral replication: OD value (HSV-I [2]; 23.88 μg/ml, n = 6): 0.62 ± 0.05 | Effect on viral replication: OD value (HSV-I [2]; 47.45 μg/ml, n = 6): 0.80 ± 0.05 | Effect on viral replication: OD value (HSV-I [2]; 95.50 μg/ml, n = 6): 0.97 ± 0.09 | Effect on viral replication: OD value (HSV-I [2]; 191.00 μg/ml, n = 6): 0.98 ± 0.12 | Effect on viral replication: OD value (HSV-I [2]; 382.00 μg/ml, n = 6): 0.99 ± 0.02 | effect on viral replication (in words) (HSV-I [2]; CPE method): significant effect | inhibition at 5.97 µg/mL (HSV-I [2]; Human alphaherpesvirus 1, 5.97 μg/ml, n = 6, read-out: Effect on viral replication: Inhibition rate (%)): 13.1% | inhibition at 11.94 µg/mL (HSV-I [2]; Human alphaherpesvirus 1, 11.94 μg/ml, n = 6, read-out: Effect on viral replication: Inhibition rate (%)): 17.6% | inhibition at 23.88 µg/mL (HSV-I [2]; Human alphaherpesvirus 1, 23.88 μg/ml, n = 6, read-out: Effect on viral replication: Inhibition rate (%)): 50.5% | inhibition at 47.45 µg/mL (HSV-I [2]; Human alphaherpesvirus 1, 47.45 μg/ml, n = 6, read-out: Effect on viral replication: Inhibition rate (%)): 73.8% | inhibition at 95.5 µg/mL (HSV-I [2]; Human alphaherpesvirus 1, 95.50 μg/ml, n = 6, read-out: Effect on viral replication: Inhibition rate (%)): 96.2% | inhibition at 191 µg/mL (HSV-I [2]; Human alphaherpesvirus 1, 191.00 μg/ml, n = 6, read-out: Effect on viral replication: Inhibition rate (%)): 98% | inhibition at 382 µg/mL (HSV-I [2]; Human alphaherpesvirus 1, 382.00 μg/ml, n = 6, read-out: Effect on viral replication: Inhibition rate (%)): 98.8% | Effect on viral adsorption: OD value (HSV-I [3]; 5.97 μg/ml, n = 6): 0.24 ± 0.03 | Effect on viral adsorption: OD value (HSV-I [3]; 11.94 μg/ml, n = 6): 0.23 ± 0.05 | Effect on viral adsorption: OD value (HSV-I [3]; 23.88 μg/ml, n = 6): 0.24 ± 0.04 | Effect on viral adsorption: OD value (HSV-I [3]; 47.45 μg/ml, n = 6): 0.25 ± 0.04 | Effect on viral adsorption: OD value (HSV-I [3]; 95.50 μg/ml, n = 6): 0.26 ± 0.06 | Effect on viral adsorption: OD value (HSV-I [3]; 191.00 μg/ml, n = 6): 0.25 ± 0.06 | Effect on viral adsorption: OD value (HSV-I [3]; 382.00 μg/ml, n = 6): 0.24 ± 0.06 | inhibitory effect on viral adsorption (in words) (HSV-I [3]; CPE method): almost no inhibitory effect | inhibition at 5.97 µg/mL (HSV-I [3]; Human alphaherpesvirus 1, 5.97 μg/ml, n = 6, read-out: Effect on viral adsorption: Inhibition rate (%)): 4.97% | inhibition at 11.94 µg/mL (HSV-I [3]; Human alphaherpesvirus 1, 11.94 μg/ml, n = 6, read-out: Effect on viral adsorption: Inhibition rate (%)): 4.83% | inhibition at 23.88 µg/mL (HSV-I [3]; Human alphaherpesvirus 1, 23.88 μg/ml, n = 6, read-out: Effect on viral adsorption: Inhibition rate (%)): 5.22% | inhibition at 47.45 µg/mL (HSV-I [3]; Human alphaherpesvirus 1, 47.45 μg/ml, n = 6, read-out: Effect on viral adsorption: Inhibition rate (%)): 6.97% | inhibition at 95.5 µg/mL (HSV-I [3]; Human alphaherpesvirus 1, 95.50 μg/ml, n = 6, read-out: Effect on viral adsorption: Inhibition rate (%)): 7.33% | inhibition at 191 µg/mL (HSV-I [3]; Human alphaherpesvirus 1, 191.00 μg/ml, n = 6, read-out: Effect on viral adsorption: Inhibition rate (%)): 6.16% | inhibition at 382 µg/mL (HSV-I [3]; Human alphaherpesvirus 1, 382.00 μg/ml, n = 6, read-out: Effect on viral adsorption: Inhibition rate (%)): 5.39% | Direct inactivation: OD value (HSV-I [4]; 5.97 μg/ml, n = 6): 0.33 ± 0.04 | Direct inactivation: OD value (HSV-I [4]; 11.94 μg/ml, n = 6): 0.39 ± 0.05 | Direct inactivation: OD value (HSV-I [4]; 23.88 μg/ml, n = 6): 0.48 ± 0.06 | Direct inactivation: OD value (HSV-I [4]; 47.45 μg/ml, n = 6): 0.55 ± 0.08 | Direct inactivation: OD value (HSV-I [4]; 95.50 μg/ml, n = 6): 0.65 ± 0.08 | Direct inactivation: OD value (HSV-I [4]; 191.00 μg/ml, n = 6): 0.90 ± 0.09 | Direct inactivation: OD value (HSV-I [4]; 382.00 μg/ml, n = 6): 1.08 ± 0.06 | direct inactivation of the virus (in words) (HSV-I [4]; CPE method): significant effect | inhibition at 5.97 µg/mL (HSV-I [4]; Human alphaherpesvirus 1, 5.97 μg/ml, n = 6, read-out: Direct inactivation: Inhibition rate (%)): 3.91% | inhibition at 11.94 µg/mL (HSV-I [4]; Human alphaherpesvirus 1, 11.94 μg/ml, n = 6, read-out: Direct inactivation: Inhibition rate (%)): 10.8% | inhibition at 23.88 µg/mL (HSV-I [4]; Human alphaherpesvirus 1, 23.88 μg/ml, n = 6, read-out: Direct inactivation: Inhibition rate (%)): 22.4% | inhibition at 47.45 µg/mL (HSV-I [4]; Human alphaherpesvirus 1, 47.45 μg/ml, n = 6, read-out: Direct inactivation: Inhibition rate (%)): 31.2% | inhibition at 95.5 µg/mL (HSV-I [4]; Human alphaherpesvirus 1, 95.50 μg/ml, n = 6, read-out: Direct inactivation: Inhibition rate (%)): 44.2% | inhibition at 191 µg/mL (HSV-I [4]; Human alphaherpesvirus 1, 191.00 μg/ml, n = 6, read-out: Direct inactivation: Inhibition rate (%)): 76% | inhibition at 382 µg/mL (HSV-I [4]; Human alphaherpesvirus 1, 382.00 μg/ml, n = 6, read-out: Direct inactivation: Inhibition rate (%)): 98.7% | keratitis pathological changes and clinical score changes compared to model control group (Ctrl) (HSV-I viral keratitis; C57 mice, after 1 and 2 weeks of eye drops at 500 μg/ml, *P<0.05): statistically significant differences | therapeutic effect on HSV-I viral keratitis (in words) (HSV-I viral keratitis; C57 mice, eye drops 500 μg/ml, every other day, 5 x 10 μl per day, 2 weeks): good therapeutic effect | inhibition of pathological changes of HSV-I viral keratitis (in words) (HSV-I viral keratitis; mice, eye drops): effectively inhibit | solubility [5]: 1600 µg/mL
